For this assay, the system named is HeLa 21-4 cells. The assay can be described thus: DNA ends detection in fixed HeLa cells subjected to damaging agents (H2O2, Tpt), Procedure 1. To be noted: 30 min at 37 °C, H2O2 4 mM, Tpt 20 μM. The assay is classed as cell-based. The method, then:
Procedure: • 1. Pre-preparation (optional): • Incubation of live cells with 0.5-10 mM Tris (5 min-1 h at room temperature (RT)), cells should be monitored for morphological abnormalities. • 2. Fixation and permeabilization: • a. Incubation with 1%-4% formaldehyde solution, 10-15 min, 4° C. (optional) • b. Incubation with an […] detergent (e.g. Triton X-100 (0.25-3%) 10 min-1 h, RT. (optional) • c. Incubation in 70% ethanol in water, 1 h minimum but preferred 12-18 h, −20° C., sample should be stable for several months. (optional but most preferred) • 3. Pre-blocking (optional): • a. Wash (PBS 1×5 min) • b. Streptavidin solution—incubation performed on a droplet, 30 min, RT • c. Wash (PBS 3×5 min) • d. Biotin solution—incubation performed on a droplet, 30 min, RT • e. Wash (PBS 3×5 min) • 4. Increasing accessibility of DNA ends: • Incubation with 0.5-10 mM EDTA in water, 10 min-1 h, RT. • 5. Incorporation procedure: • Incorporation of unmodified and modified nucleotides (e.g. BrdU) using terminal deoxynucleotidyl transferase: • a. incubation is performed on a droplet in a humid chamber • b. samples are rinsed in wash buffers • 6. Blocking: • Incubation with 1-5% BSA solution in PBS (from 1 h to overnight in 4° C., RT). • 7. Incubation with primary antibodies—performed on a droplet in a humid chamber: • a. primary antibodies type 1 (e.g. mouse monoclonal against BrdU), preferred dilution 1:100 in 1-5% BSA, 1 h, RT • b. wash (PBS 3×5 min) • c. primary antibodies type 2 (e.g. rabbit polyclonal against BrdU), preferred dilution 1:100 in 1-5% BSA, 1 h, RT • d. wash (PBS 3×5 min) • 8. PLA procedure: • a. incubation with PLA Probes diluted in 1% BSA (37° C., 60 min, reaction on a droplet, in a humid chamber) in 40 μl of the reaction mixture per one coverslip: • 8 μl of PLA Probe MINUS stock (e.g. anti-mouse) • 8 μl of PLA Probe PLUS stock (e.g. anti-rabbit) • 24 μl of 1% BSA • b. wash samples with Wash Buffer A (2×5 min) • c. ligation—incubation (37° C., 30 min, reaction on a droplet, in a humid chamber) in 40 μl of the reaction mixture per one coverslip: • 8 μl of 5× Ligation stock (Sigma, Duolink, DUO82009), • 31 μl of ultrapure, RNAse/DNAse free, distilled water, • 1 μl of Ligase (1 U/μl) (Sigma, Duolink, DUO82027 or DUO82029) • d. wash samples with Wash Buffer A (2×2 min) • e. amplification—incubation (37° C., 100 min, reaction performed on a droplet, in a humid chamber) in 40 μl of the reaction mixture per one coverslip: • 8 μl of 5× Amplification stock (Sigma, Duolink, DUO82060 or DUO82011), • 31.5 μl of ultrapure, RNAse/DNAse free, distilled water, • 0.5 μl of Polymerase (10 U/μl) (Sigma, Duolink, DUO82028 or DUO82030) • 9. Imaging of samples in PBS using a fluorescence microscope. […]

The text below walks through data of US20200255884A1, “METHOD OF DETECTION OF DNA END(S) AND ITS USE” (INTODNA SP. Z O.O., priority 2017, published 2020).

Take `OO` [H2O2]: the “percentage of cells that show signs of heavy DNA damage (apoptotic cells) in the population” value (untreated less than 5%) is given as “approximately 30%”. Further, where the note is “± standard error of the mean”, the “average number of detectable regions of incorporation of BrdU (free ends of DNA) per cell” value turned out to be 31.57±8.61.
